Laboratory results published in US6489469B1, “Method for storing or transporting erythritol solution” (Nikken Chemicals Co., Ltd., priority 1999, dated 2002).

Experiments:
[1] = system: Saccharomyces cerevisiae ATCC 9763; assay: Viable Count of Saccharomyces cerevisiae ATCC 9763 in Erythritol Solution; type: cell-based
Method: (§1) Erythritol solutions of respective concentrations in the range of from 30 to 60% were prepared. To these were inoculated Staphylococcus aureus IFO 13276, Bacillus subtilis IFO 3134, and Escherichia coli IFO 3972 as bacteria, Candida albicans IFO 1549 and Saccharomyces cerevisiae ATCC 9763 as yeasts, Aspergillus niger IFO 6342, Aspergillus flavus IFO 6343, and Penicillium funiculosum IFO 6345 as fungi, respectively, in a population (concentration) of 10,000 cells/mL or more. After the inoculation, the solutions were stored at 30, 37, 45, 50, or 60° C., respectively, for 56 days and the number of viable cell was determined daily. The determination of the number of viable cell was performed by a method of coating 0.1 mL of appropriately diluted sample cultivation on an agar plate and cultivating and counting the number of viable cell (the number of colony) that grew after the cultivation.

[2] = system: Staphylococcus aureus IFO 13276; assay: Viable Count of Staphylococcus aureus IFO 13276 in Erythritol Solution; type: cell-based
Method: as §1

OC[C@@H](O)[C@@H](O)CO [Erythritol Solution, erythritol]
The Number of Viable Cell ([1]; 37° C., 30% w/w, Day 0): ≥ 10000 cells/mL
The Number of Viable Cell ([1]; 37° C., 30% w/w, Day 3): ≥ 10000 cells/mL
The Number of Viable Cell ([1]; 37° C., 30% w/w, Day 7): ≥ 10000 cells/mL
The Number of Viable Cell ([1]; 37° C., 30% w/w, Day 14): ≥ 10000 cells/mL
The Number of Viable Cell ([1]; 37° C., 30% w/w, Day 28): ≥ 10000 cells/mL
The Number of Viable Cell ([1]; 37° C., 30% w/w, Day 56): 0 cells/mL
The Number of Viable Cell ([1]; 37° C., 40% w/w, Day 0): ≥ 10000 cells/mL
The Number of Viable Cell ([1]; 37° C., 40% w/w, Day 3): ≥ 10000 cells/mL
The Number of Viable Cell ([1]; 37° C., 40% w/w, Day 7): ≥ 10000 cells/mL
The Number of Viable Cell ([1]; 37° C., 40% w/w, Day 14): ≥ 10000 cells/mL
The Number of Viable Cell ([1]; 37° C., 40% w/w, Day 28): 1130 cells/mL
The Number of Viable Cell ([1]; 37° C., 40% w/w, Day 56): 0 cells/mL
The Number of Viable Cell ([1]; 45° C., 30% w/w, Day 0): ≥ 10000 cells/mL
The Number of Viable Cell ([1]; 45° C., 30% w/w, Day 3): 1480 cells/mL
The Number of Viable Cell ([1]; 45° C., 30% w/w, Day 7): 0 cells/mL
The Number of Viable Cell ([1]; 45° C., 30% w/w, Day 14): 0 cells/mL
The Number of Viable Cell ([1]; 45° C., 30% w/w, Day 28): 0 cells/mL
The Number of Viable Cell ([1]; 45° C., 30% w/w, Day 56): 0 cells/mL
The Number of Viable Cell ([1]; 45° C., 40% w/w, Day 0): ≥ 10000 cells/mL
The Number of Viable Cell ([1]; 45° C., 40% w/w, Day 3): 1440 cells/mL
The Number of Viable Cell ([1]; 45° C., 40% w/w, Day 7): 0 cells/mL
The Number of Viable Cell ([1]; 45° C., 40% w/w, Day 14): 0 cells/mL
The Number of Viable Cell ([1]; 45° C., 40% w/w, Day 28): 0 cells/mL
The Number of Viable Cell ([1]; 45° C., 40% w/w, Day 56): 0 cells/mL
The Number of Viable Cell ([1]; 45° C., 50% w/w, Day 0): ≥ 10000 cells/mL
The Number of Viable Cell ([1]; 45° C., 50% w/w, Day 3): 1600 cells/mL
The Number of Viable Cell ([1]; 45° C., 50% w/w, Day 7): 0 cells/mL
The Number of Viable Cell ([1]; 45° C., 50% w/w, Day 14): 0 cells/mL
The Number of Viable Cell ([1]; 45° C., 50% w/w, Day 28): 0 cells/mL
The Number of Viable Cell ([1]; 45° C., 50% w/w, Day 56): 0 cells/mL
The Number of Viable Cell ([1]; 50° C., 30% w/w, Day 0): ≥ 10000 cells/mL
The Number of Viable Cell ([1]; 50° C., 30% w/w, Day 3): 0 cells/mL
The Number of Viable Cell ([1]; 50° C., 30% w/w, Day 7): 0 cells/mL
The Number of Viable Cell ([1]; 50° C., 30% w/w, Day 14): 0 cells/mL
The Number of Viable Cell ([1]; 50° C., 30% w/w, Day 28): 0 cells/mL
The Number of Viable Cell ([1]; 50° C., 30% w/w, Day 56): 0 cells/mL
The Number of Viable Cell ([1]; 50° C., 40% w/w, Day 0): ≥ 10000 cells/mL
The Number of Viable Cell ([1]; 50° C., 40% w/w, Day 3): 0 cells/mL
The Number of Viable Cell ([1]; 50° C., 40% w/w, Day 7): 0 cells/mL
The Number of Viable Cell ([1]; 50° C., 40% w/w, Day 14): 0 cells/mL
The Number of Viable Cell ([1]; 50° C., 40% w/w, Day 28): 0 cells/mL
The Number of Viable Cell ([1]; 50° C., 40% w/w, Day 56): 0 cells/mL
The Number of Viable Cell ([1]; 50° C., 50% w/w, Day 0): ≥ 10000 cells/mL
The Number of Viable Cell ([1]; 50° C., 50% w/w, Day 3): 0 cells/mL
The Number of Viable Cell ([1]; 50° C., 50% w/w, Day 7): 0 cells/mL
The Number of Viable Cell ([1]; 50° C., 50% w/w, Day 14): 0 cells/mL
The Number of Viable Cell ([1]; 50° C., 50% w/w, Day 28): 0 cells/mL
The Number of Viable Cell ([1]; 50° C., 50% w/w, Day 56): 0 cells/mL
growth of the microbes ([1]; temperature of 50° C. or more): prevented from growing
time after which microbes died ([1]; temperature of 50° C. or more): 3 days
The Number of Viable Cell ([2]; 30° C., 30% w/w, Day 0): 10000 or more cells/mL
The Number of Viable Cell ([2]; 30° C., 30% w/w, Day 3): 20400 cells/mL
The Number of Viable Cell ([2]; 30° C., 30% w/w, Day 7): 11100 cells/mL
The Number of Viable Cell ([2]; 30° C., 30% w/w, Day 14): 360 cells/mL
The Number of Viable Cell ([2]; 30° C., 30% w/w, Day 28): 0 cells/mL
The Number of Viable Cell ([2]; 30° C., 30% w/w, Day 56): 0 cells/mL
The Number of Viable Cell ([2]; 30° C., 40% w/w, Day 0): 10000 or more cells/mL
The Number of Viable Cell ([2]; 30° C., 40% w/w, Day 3): 8380 cells/mL
The Number of Viable Cell ([2]; 30° C., 40% w/w, Day 7): 6200 cells/mL
The Number of Viable Cell ([2]; 30° C., 40% w/w, Day 14): 4200 cells/mL
The Number of Viable Cell ([2]; 30° C., 40% w/w, Day 28): 0 cells/mL
The Number of Viable Cell ([2]; 30° C., 40% w/w, Day 56): 0 cells/mL
The Number of Viable Cell ([2]; 45° C., 30% w/w, Day 0): 10000 or more cells/mL
The Number of Viable Cell ([2]; 45° C., 30% w/w, Day 3): 0 cells/mL
The Number of Viable Cell ([2]; 45° C., 30% w/w, Day 7): 0 cells/mL
The Number of Viable Cell ([2]; 45° C., 30% w/w, Day 14): 0 cells/mL
The Number of Viable Cell ([2]; 45° C., 30% w/w, Day 28): 0 cells/mL
The Number of Viable Cell ([2]; 45° C., 30% w/w, Day 56): 0 cells/mL
The Number of Viable Cell ([2]; 45° C., 40% w/w, Day 0): 10000 or more cells/mL
The Number of Viable Cell ([2]; 45° C., 40% w/w, Day 3): 0 cells/mL
The Number of Viable Cell ([2]; 45° C., 40% w/w, Day 7): 0 cells/mL
The Number of Viable Cell ([2]; 45° C., 40% w/w, Day 14): 0 cells/mL
The Number of Viable Cell ([2]; 45° C., 40% w/w, Day 28): 0 cells/mL
The Number of Viable Cell ([2]; 45° C., 40% w/w, Day 56): 0 cells/mL
The Number of Viable Cell ([2]; 45° C., 50% w/w, Day 0): 10000 or more cells/mL
The Number of Viable Cell ([2]; 45° C., 50% w/w, Day 3): 0 cells/mL
The Number of Viable Cell ([2]; 45° C., 50% w/w, Day 7): 0 cells/mL
The Number of Viable Cell ([2]; 45° C., 50% w/w, Day 14): 0 cells/mL
The Number of Viable Cell ([2]; 45° C., 50% w/w, Day 28): 0 cells/mL
The Number of Viable Cell ([2]; 45° C., 50% w/w, Day 56): 0 cells/mL
The Number of Viable Cell ([2]; 50° C., 30% w/w, Day 0): 10000 or more cells/mL
The Number of Viable Cell ([2]; 50° C., 30% w/w, Day 3): 0 cells/mL
The Number of Viable Cell ([2]; 50° C., 30% w/w, Day 7): 0 cells/mL
The Number of Viable Cell ([2]; 50° C., 30% w/w, Day 14): 0 cells/mL
The Number of Viable Cell ([2]; 50° C., 30% w/w, Day 28): 0 cells/mL
The Number of Viable Cell ([2]; 50° C., 30% w/w, Day 56): 0 cells/mL
The Number of Viable Cell ([2]; 50° C., 40% w/w, Day 0): 10000 or more cells/mL
The Number of Viable Cell ([2]; 50° C., 40% w/w, Day 3): 0 cells/mL
The Number of Viable Cell ([2]; 50° C., 40% w/w, Day 7): 0 cells/mL
The Number of Viable Cell ([2]; 50° C., 40% w/w, Day 14): 0 cells/mL
The Number of Viable Cell ([2]; 50° C., 40% w/w, Day 28): 0 cells/mL
The Number of Viable Cell ([2]; 50° C., 40% w/w, Day 56): 0 cells/mL
The Number of Viable Cell ([2]; 50° C., 50% w/w, Day 0): 10000 or more cells/mL
The Number of Viable Cell ([2]; 50° C., 50% w/w, Day 3): 0 cells/mL
The Number of Viable Cell ([2]; 50° C., 50% w/w, Day 7): 0 cells/mL
The Number of Viable Cell ([2]; 50° C., 50% w/w, Day 14): 0 cells/mL
The Number of Viable Cell ([2]; 50° C., 50% w/w, Day 28): 0 cells/mL
The Number of Viable Cell ([2]; 50° C., 50% w/w, Day 56): 0 cells/mL
growth of the microbes ([2]; temperature of 50° C. or more): prevented from growing
time after which microbes died ([2]; temperature of 50° C. or more): 3 days
